Experimental findings from BindingDB's records for doi:10.1021/jm00098a005 (Pfizer, 1992) are described below.

The nature of test [1]: Compound was evaluated for binding affinity towards 5-hydroxytryptamine 1D receptor in bovine caudate using [3H]- serotonin as radioligand.
A short description of test [2]: Compound was evaluated for binding affinity towards 5-hydroxytryptamine 1C receptor in pig choroid plexus using [3H]mesulergine as radioligand.

In general, IC50 refers to the midpoint of a concentration-inhibition curve. A lower IC50 goes with greater potency in that assay. For the molecule `CN(C)CCc1c[nH]c2ccc3c(c12)CCCO3`, the IC50 in test [1] amounted to 220 nM; in test [2], 150 nM.

Regarding `NCCc1c[nH]c2ccc3c(c12)CCCO3`, the values for the IC50 in test [1] and in test [2] were 110 nM and 41 nM, respectively.

On to `CN(C)CCc1c[nH]c2cc3c(cc12)OCCC3`, for which, in test [2], the IC50 was 2500 nM.

As to `CN(C)CCc1cn(C)c2ccc3c(c12)CCCO3`, the figures for the half-maximal inhibitory concentration (IC50) in test [1] and in test [2] were 9300 nM and 100 nM, respectively.

Consider `Cn1cc(CCN)c2c3c(ccc21)OCCC3`, for which the IC50 in test [1] was 4200 nM; in test [2] it was 100 nM.
